Test results from US12441768B2, “Compositions and methods for treating endometriosis” (EndoMet Biosciences, Inc., priority 2018, dated 2025).
Where a SMILES comes first, the peptide text is derived from it.

Biological target: T1, β-catenin (Homo sapiens, UniProt P35222)
T1 sequence (P35222 1-781): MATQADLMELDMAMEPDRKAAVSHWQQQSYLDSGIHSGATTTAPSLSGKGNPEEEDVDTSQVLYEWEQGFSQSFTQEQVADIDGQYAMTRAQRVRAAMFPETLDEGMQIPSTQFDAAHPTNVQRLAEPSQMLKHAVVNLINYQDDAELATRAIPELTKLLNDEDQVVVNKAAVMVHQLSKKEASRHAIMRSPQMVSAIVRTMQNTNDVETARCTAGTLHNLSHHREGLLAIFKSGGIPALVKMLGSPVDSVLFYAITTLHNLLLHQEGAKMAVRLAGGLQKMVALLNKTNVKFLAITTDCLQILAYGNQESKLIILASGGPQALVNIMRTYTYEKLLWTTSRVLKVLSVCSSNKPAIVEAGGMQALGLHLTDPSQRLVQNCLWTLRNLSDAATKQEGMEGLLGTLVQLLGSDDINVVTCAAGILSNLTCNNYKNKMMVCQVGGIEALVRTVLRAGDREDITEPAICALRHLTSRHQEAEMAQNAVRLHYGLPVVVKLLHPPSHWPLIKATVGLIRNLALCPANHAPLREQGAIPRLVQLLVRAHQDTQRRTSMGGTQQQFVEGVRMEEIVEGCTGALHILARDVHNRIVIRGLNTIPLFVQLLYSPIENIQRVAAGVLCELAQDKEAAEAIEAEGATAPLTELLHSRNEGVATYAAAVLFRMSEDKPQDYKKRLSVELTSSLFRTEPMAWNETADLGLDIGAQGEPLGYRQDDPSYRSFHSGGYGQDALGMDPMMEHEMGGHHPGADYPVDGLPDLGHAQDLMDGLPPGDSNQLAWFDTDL
Assay: KD50 measurement using competitive fluorescence polarization (FP) with labelled TCF4
Format: binding
Settings: fluorescence polarization, β-catenin; for Kd: read-out: β-Cat FP KD
Method in brief: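 Labelled TCF4 (5 nM) mixed with 100 nM β-catenin at room temperature; inhibitor added as serial dilutions from 10 nM to 30 uM. Polarization read at excitation 470 nm/emission 520 nm; binding displacement lowers polarization. Three independent runs.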

β-Cat FP Hill slope	Kd [µM]	Compound
0.76	< 0.4	CC[C@H](C)[C@H](NC(=O)[C@H](CO)NC(=O)[C@H](CCC(N)=O)NC(=O)[C@@H]1CCCN1C(=O)[C@H](Cc1c[nH]c2ccccc12)NC(C)=O)C(=O)N[C@@H](CC(C)C)C(=O)N[C@@H](CC(=O)O)C(=O)N[C@H]1CCCCNC(=O)C[C@@H](C(=O)N[C@H](C(=O)N[C@@H](Cc2c[nH]c3ccccc23)C(N)=O)C(C)C)NC(=O)[C@H](CCC(N)=O)NC(=O)[C@H](C2CCCCC2)NC(=O)[C@H](Cc2c[nH]cn2)NC1=O [compound 462] (HELM PEPTIDE1{[ac].W.P.Q.S.I.L.D.K.H.[O=C([C@@H](N[*:1])C1CCCCC1)[*:2]].Q.D.V.W.[am]}$PEPTIDE1,PEPTIDE1,9:R3-13:R3$$$V2.0)
	< 0.4	CCCCCCCCCCCC(=O)N[C@@H](Cc1c[nH]c2ccccc12)C(=O)N1CCC[C@H]1C(=O)N[C@@H](CCC(N)=O)C(=O)N[C@@H](CO)C(=O)N[C@H](C(=O)N[C@@H](CC(C)C)C(=O)N[C@@H](CC(=O)O)C(=O)N[C@H]1CCCCNC(=O)C[C@@H](C(=O)N[C@H](C(=O)N[C@@H](Cc2c[nH]c3ccccc23)C(N)=O)C(C)C)NC(=O)[C@H](CCC(N)=O)NC(=O)[C@H](C2CCCCC2)NC(=O)[C@H](Cc2c[nH]cn2)NC1=O)[C@@H](C)CC [compound 463] (HELM PEPTIDE1{[CCCCCCCCCCCC(=O)[*:2]].W.P.Q.S.I.L.D.K.H.[O=C([C@@H](N[*:1])C1CCCCC1)[*:2]].Q.D.V.W.[am]}$PEPTIDE1,PEPTIDE1,9:R3-13:R3$$$V2.0)
0.7		CC[C@H](C)[C@@H]1NC(=O)[C@@H](NC(=O)[C@H](CCC(N)=O)NC(=O)[C@H](C)N(C)C(=O)[C@H](Cc2c[nH]c3ccccc23)NC(C)=O)CCCCNC(=O)CC[C@@H](C(=O)N[C@@H](Cc2c[nH]cn2)C(=O)N[C@H](C(=O)N[C@H]2CCC(=O)NCCCC[C@@H](C(N)=O)NC(=O)[C@H](Cc3c[nH]c4ccccc34)NC(=O)[C@H](C(C)C)NC(=O)[C@H](CC(=O)O)NC2=O)C2CCCCC2)NC(=O)[C@H](CC(=O)O)NC(=O)[C@H](CC(C)C)NC1=O [compound 464] (HELM PEPTIDE1{[ac].W.[meA].Q.K.I.L.D.E.H.[O=C([C@@H](N[*:1])C1CCCCC1)[*:2]].E.D.V.W.K.[am]}$PEPTIDE1,PEPTIDE1,5:R3-9:R3|PEPTIDE1,PEPTIDE1,12:R3-16:R3$$$V2.0; bridges inferred)
0.72	< 0.4	CC[C@H](C)[C@H](NC(=O)[C@H](CO)NC(=O)[C@H](CCC(N)=O)NC(=O)[C@H](C)N(C)C(=O)[C@H](Cc1c[nH]c2ccccc12)NC(C)=O)C(=O)N[C@@H](CC(C)C)C(=O)N[C@@H](CC(=O)O)C(=O)N[C@H]1CCC(=O)NCCCC[C@@H](C(=O)N[C@H](C(=O)N[C@@H](Cc2c[nH]c3ccccc23)C(N)=O)C(C)C)NC(=O)[C@H](CCC(N)=O)NC(=O)[C@H](C2CCCCC2)NC(=O)[C@H](Cc2c[nH]cn2)NC1=O [compound 466] (HELM PEPTIDE1{[ac].W.[meA].Q.S.I.L.D.E.H.[O=C([C@@H](N[*:1])C1CCCCC1)[*:2]].Q.K.V.W.[am]}$PEPTIDE1,PEPTIDE1,9:R3-13:R3$$$V2.0)
	< 0.4	CCCCCCCCCCCC(=O)N[C@@H](Cc1c[nH]c2ccccc12)C(=O)N(C)[C@@H](C)C(=O)N[C@@H](CCC(N)=O)C(=O)N[C@@H](CO)C(=O)N[C@H](C(=O)N[C@@H](CC(C)C)C(=O)N[C@@H](CC(=O)O)C(=O)N[C@H]1CCC(=O)NCCCC[C@@H](C(=O)N[C@H](C(=O)N[C@@H](Cc2c[nH]c3ccccc23)C(N)=O)C(C)C)NC(=O)[C@H](CCC(N)=O)NC(=O)[C@H](C2CCCCC2)NC(=O)[C@H](Cc2c[nH]cn2)NC1=O)[C@@H](C)CC [compound 467] (HELM PEPTIDE1{[CCCCCCCCCCCC(=O)[*:2]].W.[meA].Q.S.I.L.D.E.H.[O=C([C@@H](N[*:1])C1CCCCC1)[*:2]].Q.K.V.W.[am]}$PEPTIDE1,PEPTIDE1,9:R3-13:R3$$$V2.0)
0.86	< 0.4	CC[C@H](C)[C@H](NC(=O)[C@H](CO)NC(=O)[C@H](CCC(N)=O)NC(=O)[C@@H]1CCCN1C(=O)[C@H](Cc1c[nH]c2ccccc12)NC(C)=O)C(=O)N[C@@H](CC(C)C)C(=O)N[C@@H](CC(=O)O)C(=O)N[C@H]1CCC(=O)NCCCC[C@@H](C(=O)N[C@H](C(=O)N[C@@H](Cc2c[nH]c3ccccc23)C(N)=O)C(C)C)NC(=O)[C@H](CCC(N)=O)NC(=O)[C@H](C2CCCCC2)NC(=O)[C@H](Cc2c[nH]cn2)NC1=O [compound 468] (HELM PEPTIDE1{[ac].W.P.Q.S.I.L.D.E.H.[O=C([C@@H](N[*:1])C1CCCCC1)[*:2]].Q.K.V.W.[am]}$PEPTIDE1,PEPTIDE1,9:R3-13:R3$$$V2.0)
	< 0.4	CCCCCCCCCCCC(=O)N[C@@H](Cc1c[nH]c2ccccc12)C(=O)N1CCC[C@H]1C(=O)N[C@@H](CCC(N)=O)C(=O)N[C@@H](CO)C(=O)N[C@H](C(=O)N[C@@H](CC(C)C)C(=O)N[C@@H](CC(=O)O)C(=O)N[C@H]1CCC(=O)NCCCC[C@@H](C(=O)N[C@H](C(=O)N[C@@H](Cc2c[nH]c3ccccc23)C(N)=O)C(C)C)NC(=O)[C@H](CCC(N)=O)NC(=O)[C@H](C2CCCCC2)NC(=O)[C@H](Cc2c[nH]cn2)NC1=O)[C@@H](C)CC [compound 469] (HELM PEPTIDE1{[CCCCCCCCCCCC(=O)[*:2]].W.P.Q.S.I.L.D.E.H.[O=C([C@@H](N[*:1])C1CCCCC1)[*:2]].Q.K.V.W.[am]}$PEPTIDE1,PEPTIDE1,9:R3-13:R3$$$V2.0)
0.81	< 0.4	CC[C@H](C)[C@H](NC(=O)[C@H](CO)NC(=O)[C@H](CCC(N)=O)NC(=O)[C@H](C)N(C)C(=O)[C@H](Cc1c[nH]c2ccccc12)NC(C)=O)C(=O)N[C@@H](CC(C)C)C(=O)N[C@@H](CC(=O)O)C(=O)N[C@H]1CCC(=O)NCCCC[C@@H](C(=O)N[C@H](C(=O)N[C@@H](Cc2c[nH]c3ccccc23)C(=O)NCC(N)=O)C(C)C)NC(=O)[C@H](CCC(N)=O)NC(=O)[C@H](C2CCCCC2)NC(=O)[C@H](Cc2c[nH]cn2)NC1=O [compound 470] (HELM PEPTIDE1{[ac].W.[meA].Q.S.I.L.D.E.H.[O=C([C@@H](N[*:1])C1CCCCC1)[*:2]].Q.K.V.W.G.[am]}$PEPTIDE1,PEPTIDE1,9:R3-13:R3$$$V2.0)
	< 0.4	CCCCCCCCCCCC(=O)N[C@@H](Cc1c[nH]c2ccccc12)C(=O)N(C)[C@@H](C)C(=O)N[C@@H](CCC(N)=O)C(=O)N[C@@H](CO)C(=O)N[C@H](C(=O)N[C@@H](CC(C)C)C(=O)N[C@@H](CC(=O)O)C(=O)N[C@H]1CCC(=O)NCCCC[C@@H](C(=O)N[C@H](C(=O)N[C@@H](Cc2c[nH]c3ccccc23)C(=O)NCC(N)=O)C(C)C)NC(=O)[C@H](CCC(N)=O)NC(=O)[C@H](C2CCCCC2)NC(=O)[C@H](Cc2c[nH]cn2)NC1=O)[C@@H](C)CC [compound 471] (HELM PEPTIDE1{[CCCCCCCCCCCC(=O)[*:2]].W.[meA].Q.S.I.L.D.E.H.[O=C([C@@H](N[*:1])C1CCCCC1)[*:2]].Q.K.V.W.G.[am]}$PEPTIDE1,PEPTIDE1,9:R3-13:R3$$$V2.0)
	< 0.4	CCCCCCCCCCCC(=O)N[C@@H](Cc1c[nH]c2ccccc12)C(=O)N1CCC[C@H]1C(=O)N[C@@H](CCC(N)=O)C(=O)N[C@@H](CO)C(=O)N[C@H](C(=O)N[C@@H](CC(C)C)C(=O)N[C@@H](CC(=O)O)C(=O)N[C@H]1CCC(=O)NCCCC[C@@H](C(=O)N[C@H](C(=O)N[C@@H](Cc2c[nH]c3ccccc23)C(=O)NCC(N)=O)C(C)C)NC(=O)[C@H](CCC(N)=O)NC(=O)[C@H](C2CCCCC2)NC(=O)[C@H](Cc2c[nH]cn2)NC1=O)[C@@H](C)CC [compound 473] (HELM PEPTIDE1{[CCCCCCCCCCCC(=O)[*:2]].W.P.Q.S.I.L.D.E.H.[O=C([C@@H](N[*:1])C1CCCCC1)[*:2]].Q.K.V.W.G.[am]}$PEPTIDE1,PEPTIDE1,9:R3-13:R3$$$V2.0)
0.88	< 0.4	H-GGGDDLGANDELISFKDEGEQEEKSSENSSAERDLADVKSSLVNEK-NH2 [compound 266]
